Measured values: article PMC9024523, “Phenoxyaromatic Acid Analogues as Novel Radiotherapy Sensitizers: Design, Synthesis and Biological Evaluation” (Molecules, 2022)
Where “and” joins values, the source holds several entries; their conditions need not be identical. Equal entries are not always repeated.

Tested on: mouse red blood cells
Experiment: In vitro red blood cell-based assay (oxygen equilibrium curve, Softron analyzer)
Details: final effector concentration 2 mM, mean ± SD; for P50/P50C: P50C = control with 1% DMSO; for P50: 1% DMSO; for P50 / ∆P50: mouse red blood cells; for ∆P50: ∆P50 = P50 − P50C
Text: In the first stage of our research, three series of analogues were designed and synthesized to explore refinement of the hydrophobic parts of 19f, 19m, 24a and 24b; hinge areas of 18g, 19b and 19y; and tail regions of 15c, 15d and 16c, respectively. We used the Softron Analyzer to evaluate the effect of these compounds on the half-blood oxygen saturation(P50) value of red blood cells. The most promising phenoxyaromatic acid compound, efaproxiral, was used as a positive control. […] The results reminded us that the modification of the hydrophobic part or linker extension is beneficial to improve an allosteric effect.
Eight-week-old female C57BL6J mice were purchased from Beijing Vital River Laboratory Animal Technology Co., Ltd. A total of 540 μL mouse blood was added into the 1.5 mL centrifuge tube, followed by adding 60 μL 3.8% sodium citrate. The mixture was then centrifuged at 1500 rpm for 10 min, the supernatant was carefully aspirated, and the cells were washed three times with PBS solution. After mixing packed red blood cells with Alsever’s solution in a ratio of 1:1, a blood gas analyzer (RADIOMETER ABL 90) was used to analyze the red blood cell density and hemoglobin concentration.
All of the compounds were prepared as 200 mM stock solutions in DMSO. Oxygen equilibrium measurements were performed with the Softron analyzer (Softron Medical Products, Beijing, China) using mouse red blood cells. The samples were prepared by adding 3 mg hemoglobin equivalent of red blood cells into 3.92 mL loading buffer (100 mM NaCl, 50 mM bis-Tris at pH 7.2 and 25 °C), followed by 20 μL 10% Dimethicone as a defoamer and 20 μL 20% BSA. Afterwards, 40 μL stock solution was added, and the mixture was loaded to the sample cell and fully deoxygenated by blowing into nitrogen at 37 °C for 15 min. Then, the oxygen equilibrium curve was recorded by blowing into oxygen.

Compound | P50/P50C | P50 | K (Hill coefficient of the oxygen dissociation curve at 50% saturation) | ∆P50 | ∆P50 (listed as 190)
2-(4-(1-((3,5-dimethylphenyl)carbamoyl)cyclopropyl)phenoxy)-2-methylpropanoic acid [19e] | 1.10 ± 0.04 | 46.24 ± 7.09 mmHg | 2.40 ± 0.12 | 4.41 ± 2.27 mmHg | 
2-(4-(2-((3-bromo-5-chlorophenyl)amino)ethyl)phenoxy)-2-methylpropanoic acid [18b] | 1.10 ± 0.03 | 42.61 ± 2.15 mmHg | 2.19 ± 0.01 | 3.66 ± 0.88 mmHg | 
2-(4-(2-([1,1′-biphenyl]-4-ylamino)ethyl)phenoxy)-2-methylpropanoic acid [18e] | 1.15 ± 0.37 | 51.84 ± 16.79 mmHg | 2.28 ± 0.28 | 6.60 ± 16.79 mmHg | 
2-methyl-2-(4-(2-(naphthalen-2-ylamino)ethyl)phenoxy)propanoic acid [18f] | 1.72 ± 0.03 | 79.24 ± 1.61 mmHg | 1.89 ± 0.13 | 33.13 ± 1.61 mmHg | 
2-methyl-2-(4-(2-oxo-2-(o-tolylamino)ethyl)phenoxy)propanoic acid [19f] | 1.17 ± 0.04 | 53.78 ± 1.94 mmHg | 2.26 ± 0.11 | 7.72 ± 1.87 mmHg | 
7-(2-((3,5-dimethylphenyl)amino)-2-oxoethyl)-2,3-dihydrobenzo[b][1,4]dioxine-2-carboxylic acid [compound 20] | 1.12 ± 0.06 | 47.11 ± 8.08 mmHg | 2.39 ± 0.16 | 5.27 ± 3.27 mmHg | 
CCOC(=O)CCCOc1ccc(CC(=O)Nc2cc(C)cc(C)c2)cc1 [15a, Ethyl 4-(4-(2-((3,5-dimethylphenyl)amino)-2-oxoethyl)phenoxy)butanoate] | 0.96 ± 0.25 | 43.55 ± 11.21 mmHg |  | −1.70 ± 11.21 mmHg | 
COC(=O)C(Oc1ccc(CC(=O)Nc2cc(C)cc(C)c2)cc1)c1ccccc1 (stereo not shown) [15b, Methyl2-(4-(2-((3,5-dimethylphenyl)amino)-2-oxoethyl)phenoxy)-2-phenylacetate] | 1.28 ± 0.19 | 57.82 ± 8.69 mmHg |  | 12.58 ± 8.69 mmHg | 
COC(=O)C(C)(C)Oc1ccc(CC(=O)Nc2cc(C)cc(C)c2)cc1 [15c, Methyl2-(4-(2-((3,5-dimethylphenyl)amino)-2-oxoethyl)phenoxy)-2methylpropanoate] | 0.96 ± 0.26 | 43.28 ± 11.71 mmHg |  | −1.96 ± 11.71 mmHg | 
Cc1cc(C)cc(NC(=O)Cc2ccc(OCCCC(=O)O)cc2)c1 [16a, 4-(4-(2-((3,5-dimethylphenyl)amino)-2-oxoethyl)phenoxy)butanoic acid] | 1.18 ± 0.04 | 53.49 ± 1.85 mmHg |  | 8.25 ± 1.85 mmHg | 
Cc1cc(C)cc(NCCCc2ccc(OC(C)(C)C(=O)O)cc2)c1 [18a, 2-(4-(3-((3,5-dimethylphenyl)amino)propyl)phenoxy)-2-methylpropanoic acid] | 1.41 ± 0.03 | 77.19 ± 5.93 mmHg |  | 22.54 ± 2.74 mmHg | 
CSc1cccc(NCCc2ccc(OC(C)(C)C(=O)O)cc2)c1 [18c, 2-methyl-2-(4-(2-((3-(methylthio)phenyl)amino)ethyl)phenoxy)propanoic acid] | 1.28 ± 0.07 | 48.61 ± 4.43 mmHg |  | 10.7 ± 2.95 mmHg | 
C#Cc1cccc(NCCc2ccc(OC(C)(C)C(=O)O)cc2)c1 [18d, 2-(4-(2-((3-ethynylphenyl)amino)ethyl)phenoxy)-2-methylpropanoic acid] | 1.15 ± 0.05 | 52.25 ± 2.32 mmHg |  | 7.01 ± 2.32 mmHg | 
Cc1cc(C)cc(NCCc2ccc(OC(C)(C)C(=O)O)cc2)c1 [18g, 2-(4-(2-((3,5-dimethylphenyl)amino)ethyl)phenoxy)-2-methylpropanoic acid] | 1.86 ± 0.05 | 77.54 ± 6.96 mmHg |  | 35.71 mmHg and 35.71 ± 2.14 mmHg | 
Cc1cc(C)cc(NC(=O)c2ccc(OC(C)(C)C(=O)O)cc2)c1 [19b, 2-(4-((3,5-dimethylphenyl)carbamoyl)phenoxy)-2-methylpropanoic acid] | 1.04 ± 0.05 | 43.01 ± 2.18 mmHg |  | 1.82 ± 2.18 mmHg | 
Cc1cc(C)cc(NC(=O)CCCc2ccc(OC(C)(C)C(=O)O)cc2)c1 [19d, 2-(4-(4-((3,5-dimethylphenyl)amino)-4-oxobutyl)phenoxy)-2-methylpropanoic acid] | 1.60 ± 0.02 | 67.93 ± 8.80 mmHg |  | 25.43 ± 3.71 mmHg | 
CC(C)(Oc1ccc(CC(=O)Nc2cc(Br)cc(Br)c2)cc1)C(=O)O [19h, 2-(4-(2-((3,5-dibromophenyl)amino)-2-oxoethyl)phenoxy)-2-methylpropanoic acid] | 1.87 ± 0.03 | 68.71 ± 1.18 mmHg |  | 31.90 ± 1.18 mmHg | 
CC(C)(Oc1ccc(CC(=O)Nc2cccc(I)c2)cc1)C(=O)O [19i, 2-(4-(2-((3-iodophenyl)amino)-2-oxoethyl)phenoxy)-2-methylpropanoic acid] | 1.91 ± 0.13 | 86.61 ± 6.04 mmHg |  | 41.37 mmHg and 41.37 ± 6.04 mmHg | 
CC(C)(Oc1ccc(CC(=O)Nc2cc(Cl)cc(Br)c2)cc1)C(=O)O [19j, 2-(4-(2-((3-. bromo-5-chlorophenyl)amino)-2-oxoethyl)phenoxy)-2-methylpropanoic acid] | 1.82 ± 0.02 | 82.35 ± 0.80 mmHg |  | 37.11 ± 0.80 mmHg | 
CC(C)(Oc1ccc(CC(=O)Nc2ccccc2Br)cc1)C(=O)O [19k, 2-(4-(2-((2-bromophenyl)amino)-2-oxoethyl)phenoxy)-2-methylpropanoic acid] | 1.34 ± 0.29 | 49.17 ± 10.7 mmHg |  | 12.36 ± 10.79 mmHg | 
Cc1cccc(NC(=O)Cc2ccc(OC(C)(C)C(=O)O)cc2)c1Br [19l, 2-(4-(2-((2-bromo-3-methylphenyl)amino)-2-oxoethyl)phenoxy)-2-methylpropanoic acid] | 1.56 ± 0.04 | 70.41 ± 1.68 mmHg |  | 25.17 ± 1.68 mmHg | 
CSc1ccc(NC(=O)Cc2ccc(OC(C)(C)C(=O)O)cc2)cc1 [19m, 2-methyl-2-(4-(2-((4-(methylthio)phenyl)amino)-2-oxoethyl)phenoxy)propanoic acid] | 1.80 ± 0.02 | 74.24 ± 0.69 mmHg |  | 33.05 mmHg and 33.05 ± 0.69 mmHg | 
CSc1cccc(NC(=O)Cc2ccc(OC(C)(C)C(=O)O)cc2)c1 [19m-1, 2-methyl-2-(4-(2-((3-(methylthio)phenyl)amino)-2-oxoethyl)phenoxy)propanoic acid] | 1.81 ± 0.02 | 81.67 ± 0.95 mmHg |  | 36.43 mmHg and 36.43 ± 0.95 mmHg | 
C#Cc1ccc(NC(=O)Cc2ccc(OC(C)(C)C(=O)O)cc2)cc1 [19n, 2-(4-(2-((4-ethynylphenyl)amino)-2-oxoethyl)phenoxy)-2-methylpropanoic acid] | 1.46 ± 0.02 | 60.34 ± 0.70 mmHg |  | 19.15 mmHg and 19.15 ± 0.70 mmHg | 
C#Cc1cccc(NC(=O)Cc2ccc(OC(C)(C)C(=O)O)cc2)c1 [19n-1, 2-(4-(2-((3-ethynylphenyl)amino)-2-oxoethyl)phenoxy)-2-methylpropanoic acid] | 1.79 ± 0.04 | 80.97 ± 1.77 mmHg |  | 38.73 mmHg and 38.73 ± 2.47 mmHg | 
CC(C)(Oc1ccc(CC(=O)Nc2ccc(-c3ccccc3)cc2)cc1)C(=O)O [19o, 2-(4-(2-([1,1′-biphenyl]-4-ylamino)-2-oxoethyl)phenoxy)-2-methylpropanoic acid] | 1.81 ± 0.04 | 74.56 ± 1.75 mmHg |  | 33.37 mmHg | 33.37 ± 1.75 mmHg
CC(C)(Oc1ccc(CC(=O)Nc2cccc(-c3ccccc3)c2)cc1)C(=O)O [19p, 2-(4-(2-([1,1′-biphenyl]-3-ylamino)-2-oxoethyl)phenoxy)-2-methylpropanoic acid] | 1.87 ± 0.02 | 77.10 ± 0.66 mmHg |  | 35.91 mmHg and 35.91 ± 0.66 mmHg | 
CC(C)(Oc1ccc(CC(=O)Nc2ccc(C#N)cc2)cc1)C(=O)O [19q, 2-(4-(2-((4-cyanophenyl)amino)-2-oxoethyl)phenoxy)-2-methylpropanoic acid] | 1.32 ± 0.30 | 59.60 ± 13.58 mmHg |  | 14.36 ± 13.58 mmHg | 
